Reference: patent US20080255186A1, “Pyrazolo[3,4-B]Pyridine Compound, and Its Use as a Pde4 Inhibitor” (priority 2005, published 2008)
“And” between values parts separate entries of the source, which are not always exact repeats. Equal entries are not always repeated.

What was measured:
[1] = system: TNF-α (TNF-alpha) production in Human Whole Blood; assay: Inhibition of TNF-alpha production in Human Whole Blood (IGEN assay); format: cell-based
Procedure: (§1) This is an optional supplementary test, e.g. for potentially orally-administrable PDE4 inhibitors. Also, as the assay may measure the effect of PDE4 inhibitors after loss by protein binding, it might possibly also be relevant to externally-topically-administrable PDE4 inhibitors as protein-binding-loss of compound is possible during transport through the skin.
(§2) Test compounds are prepared as a ca. 10 mM stock solution in DMSO and a dilution series prepared in DMSO with 8 successive 3-fold dilutions, either directly from the 10 mM stock solution or from a more dilute solution in DMSO. The compound is added to assay plates using a Biomek Fx liquid handling robot.
(§3) Heparinised blood drawn from normal volunteers is dispensed (ca. 100 μl=ca. 100 ul) into microtitre plate wells containing ca. 0.5 or ca. 1.0 μl (ul, microlitres) of an appropriately diluted test compound solution. […] Plasma TNFα content is determined by electrochemiluminescence assay using the MSD technology (see below), the IGEN technology (see below) or by enzyme linked immunosorbant assay (ELISA) (see below).
Ca. […] 50 μl (ul) of streptavidin/biotinylated anti-TNF-α antibody mix, ca. 25 μl ruthenium tagged anti-TNF-α monoclonal and ca. 100 μl PBS containing 0.1% bovine serum albumin are added to each well and the plates are sealed and shaken for ca. 2 hours before being read on an IGEN instrument.

[2] = system: TNF-α (TNF-alpha) production in Human Whole Blood; assay: Inhibition of TNF-alpha production in Human Whole Blood (MSD assay); format: cell-based
Procedure: as §1, §2
as §3, with “below). […]” for “below).”
For the Whole Blood assay, plates are washed after 2 hours shaking with a Skanwasher 300 version B (Skatron Instruments AS. PO Box 8, N-3401 Lier, Norway). […] About 150 μl (ul) of Read Buffer T (2×) is added to the plates, which are then read on a MSD Sector 6000. […]

IC50 ([1]; n = about 4, LPS-stimulated, read-out: Whole Blood, Mean pIC50 (IGEN assay) (converted)): ~2 nM
IC50 ([1]; range of individual measurements, read-out: Whole Blood individual pIC50 test values, range (IGEN assay) (converted)): 1.26 to 2.63 nM
IC50 ([2]; Homo sapiens, n = about 3 or 4, LPS-stimulated, read-out: Whole Blood, Mean pIC50 (MSD assay) (converted)): ~0.398 nM
Whole Blood individual pIC50 test values (MSD assay) ([2]; individual measurements): ~9.19 and ~9.50 (2×) and > 9.82
Compound: CCc1nc2c(cnn2CC)c(NC2CCOCC2)c1CNC(=O)c1cc(C)no1 [Example 1, N-{[1,6-diethyl-4-(tetrahydro-2H-pyran-4-ylamino)-1H-pyrazolo[3,4-b]pyridin-5-yl]methyl}-3-methyl-5-isoxazolecarboxamide]
